Experiments:
[1] = test system: ovarian PDXs DF86, DF101, DF118 and DF149; test: p-STAT3 (Y705) in PARPi-resistant ovarian PDX cells; format: cell-based, human; details: 5 μM olaparib for 24 hours; FIG. 25B
Description: UWB1.289 and UWB1.289+BRCA1 were purchased from ATCC and cultured in epithelial complete growth medium (50% ATCC-formulated RPMI-1640 medium, 50% MEGM medium and 3% fetal bovine serum) as described previously (Ding et al., 2018, Cell Rep 25, 2972-2980.e2975). ID8-Brca^+/+ and ID8-Brca^−/− cells were previously generated by CRISPR-Cas9 technology. The ovarian cancer patient-derived tumor xenografts (PDX) were established at Dana-Farber Cancer Institute by intraperitoneally implanting tumor cells that isolated from patients' ascites into irradiated nude mice (Liu et al., 2017; Clinical cancer research: an official journal of the American Association for Cancer Research 23, 1263-1273). The established PDX models were maintained by intraperitoneally transplantation in NOD/SCID IL2Rgnull mice (NSG, The Jackson Laboratory). The ovarian PDX cells could be cultured in the epithelial complete growth medium for about 3 to 4 days for in vitro experiments.
Analysis of p-STAT3 and γ-H2AX (p-HA2X-Ser139) was performed according to a two-step protocol for intracellular phosphorylated signaling proteins (Thermo Fisher). Briefly, cells were incubated with LIVE/DEAD Fixable Aqua Dead Cell Stain for 30 min. […]

PBM-R tumors = test: PBM-R (PARPi-resistant) ovarian tumor burden in syngeneic FVB/NJ mice; format: in vivo, mouse; details: for PBM-R tumor growth inhibition: 14 days, olaparib 50 mg/kg i.p. daily, MSA-2 25 mg/kg i.p. three times a week, FIG. 23A
Procedure: The PBM and PBM-R tumor cells were transplanted orthotopically into syngeneic FVB/NJ mice to generated tumors for drug evaluation. Tumor-bearing mice were equivalently divided into control and treatment groups according to the luminescent intensity as previously described (Ding et al., 2018; Cell Rep 25, 2972-2980.e2975). Olaparib (AZD2281) was administered daily by i.p. injection at dose of 50 mg/kg body weight. Anti-PD-1 antibody (clone, 332.8H3) was diluted in PBS (250 μg/100 μl/mouse) and injected by i.p. every 3 days. MSA-2 was prepared by diluting 50 mg/ml stock in DMSO with PBS (pH 8.0) and administered every other day (three times a week, two weeks on followed by one week off) by i.p. injection at dose of 25 mg/kg body weight. The endpoints were determined by tumor burden and ascites.

[2] = test system: BP-sgControl and BP-sgSTING cells; test: CellTiter-Glo cell viability of BP-sgControl and BP-sgSTING cells; format: cell-based, mouse; details: effect of loss of tumor cell-intrinsic STING; three days; FIG. 11B
Procedure: Tumor cells were seeded in 96-well plates at a density of 5000 cells per well and allowed to adhere overnight. Cells were then treated for 72 hours with indicated drugs at the concentrations shown. Cell viability was measured using CellTiter-Glo® 2.0 Cell Viability Assay (Promega, #G9242) according to the manufacturer's instruction. Growth inhibition was calculated by comparing the […] of drug-treated wells to that of untreated controls 1 set at 100%. Dose response curves and IC50 values were generated using a non-linear regression model in GraphPad Prism 8.

[3] = test system: STAT3 phosphorylation in PBM tumor cells; test: p-STAT3 (Y705) in PBM tumor cells (flow cytometry, Western blot); format: cell-based, mouse; details: PARPi-naïve PBM cells, 24 hours; FIGS. 19D and 20B
Procedure: Analysis of p-STAT3 and γ-H2AX (p-HA2X-Ser139) was performed according to a two-step protocol for intracellular phosphorylated signaling proteins (Thermo Fisher). Briefly, cells were incubated with LIVE/DEAD Fixable Aqua Dead Cell Stain for 30 min. After washing, cells were suspended in 100 μl PBS and then fixed by adding an equal volume of IC Fixation Buffer (CAT #00-822-49, Thermo Fisher) directly to cells and incubated at room temperature for 20 min followed by fixing with ice-cold 90% methanol in PBS for 30 min. The fixed cells were blocked and stained with p-STAT3 or γ-H2AX antibodies for flow cytometry analysis as described above.
Tumor cells were harvested and lysed with ice-cold RIPA buffer supplemented with protease phosphatase inhibitor cocktail (Thermo Fisher). Protein concentration was determined using a Pierce BCA Protein Assay Kit (Thermo Fisher). About 50 μg protein extracts were loaded and separated by SDS-PAGE, and then transferred to polyvinylidene fluoride (PVDF) membranes. After blocking with 5% non-fat milk (Bio-Rad) in PBST (PBS plus 0.2% Tween 20) at room temperature for 1 hr, membranes were incubated with primary antibodies overnight at 4° C.

[4] = test system: WT BMDMs and STING^−/− BMDMs; test: WT and STING^−/− BMDMs cultured in CM from ID8-Brca1^−/− cells; format: cell-based, mouse; details: CM of control or olaparib-treated ID8-Brca1^−/− cells; FIG. 21I
Procedure: For ex vivo culture of mouse macrophages, bone marrow cells were isolated from FVB/NJ mice and cultured in DMEM containing 10% FBS, 55 μM 2-Mercaptoethanol and 20 ng/ml M-CSF. BMDMs (bone marrow derived macrophages) were harvested on day 7 and further cultured in 2.0 ml control medium (90% DMEM, 10% FBS, 55 μM 2-Mercaptoethanol and 5 ng/ml M-CSF) described above or the medium containing 50% tumor cell conditioned medium for 72 hrs before analysis. For the tumor cell conditioned medium, about 3×10^5 tumor cells were cultured in 6-well plate for 24 hrs and then treated with DMSO or olaparib. After 24 hrs incubation with DMSO or olaparib, the tumor cells were washed twice with PBS and cultured in DMEM containing 10% FBS for 48 hrs. The tumor cell conditioned medium was collected by centrifugation at 1,500 g for 5 min at 4° C. to remove all the debris and cells. For the cytokine blocking experiment, monoclonal antibodies that specific to each cytokine were added to the tumor cell conditioned medium before it was applied to culture macrophages.

[5] = test system: TAMs co-cultured with CD8^+ T cells; test: Co-culture of TAMs with CD8^+ T cells; format: cell-based, mouse; details: TAMs pre-treated with MSA-2 33 μM, washed off; FIG. 34A
Procedure: Tumor associated macrophages (TAMs) were isolated from ETP tumors using a mouse CD11b^+ myeloid cell isolation kit (StemCell, #18970) and seeded in 48-well plate at the density of 1×10^5 cells/well, cultured in DMEM growth medium (DMEM+10% FBS+100 μg/mL penicillin-streptomycin) supplemented with 10 ng/ml mouse M-CSF (BioLegend, #576404) and allowed to adhere overnight. TAMs were then treated with or without MSA-2 at the concentration of 33 μM in the median mentioned above for 2 days. MSA-2 was washed off before coculturing TAM with CD8^+ T cells. Mouse CD8^+ T cells were isolated from spleens of FVB/NJ mice using a mouse CD8+ T cell isolation kit (StemCell, #19853) and seeded in the same 48-well plate at the density of 1×10^5 cells/well, cultured alone or cocultured with TAMs in RPMI 1640 supplemented with 10% FBS, 10 ng/ml mouse M-CSF (BioLegend, #576404), 0.055 mM 2-mercaptoethanol, 2 ng/ml IL-2 (Peprotech), 2.5 ng/ml IL-7 (Peprotech) and 50 ng/ml IL-15 (Peprotech) for 2 days. After that, T cells were collected for flow cytometry analysis.

In the case of `O=C(c1cc(Cc2n[nH]c(=O)c3ccccc23)ccc1F)N1CCN(C(=O)C2CC2)CC1` [olaparib], the “PDX cells with increased phosphorylation level STAT3” value [1] is reported as 3 out of 4, the “PBM-R tumor growth inhibition” value (PBM-R tumors) is reported as “little or no effect” and the “response of PBM-R-shStat3 tumors in vivo” value (PBM-R tumors; PBM-R cells with STAT3 knockdown, FIG. 19I) is reported as “became sensitive”. For the same compound, the “PBM-R tumor response in vivo” value (PBM-R tumors; orthotopically re-transplanted to syngeneic host mice, FIG. 15E) was “indeed resistance to PARPi in vivo”, the “sensitivity to olaparib in vitro (cell viability)” value [2] was “did not affect sensitivity” and the “phosphorylation of STAT3” value [3] was “increased phosphorylation levels of STAT3 in cultured PBM cells in a dose-dependent manner”.
In the case of `COc1cc2cc(C(=O)CCC(=O)O)sc2cc1OC` [MSA-2], the “M2-like TAM polarization of WT BMDMs” value [4] is reported as “successfully reversed”, the “PBM-R tumor growth inhibition” value (PBM-R tumors) is reported as “little or no effect” and the PBM-R tumor weight (PBM-R tumors; MSA-2 25 mg/kg i.p. three times per week with olaparib 50 mg/kg + anti-PD-1, two weeks, FIG. 14D) is reported as “sensitizes PARPi-resistant tumors to olaparib in vivo”. For the same compound, the “TAM-mediated suppression of CD8^+ T cells (cytokine production)” value [5] was “reversed TAM-mediated suppression of CD8^+ T cells”.

Source: patent US20250009743A1, “METHODS OF TREATING CANCERS USING STING AGONISTS” (Dana-Farber Cancer Institute, Inc., priority 2021, published 2025)
